Consider six compounds from patent US20250248979A1, “NOVEL GPX4 INHIBITORS AND USES THEREOF” (THE TRUSTEES OF COLUMBIA UNIVERSITY IN THE CITY OF NEW YORK, priority 2022, published 2025).

Series [1] in a line: in vitro. The following applies: human, plasma.
In another series the target is T1, GPX4^U46C (Homo sapiens, UniProt P36969, U73C).
T1 construct: made in house; host or cells: E. coli BL21-Gold (DE3)
T1 sequence (P36969 1-170 isoform P36969-2 U46C): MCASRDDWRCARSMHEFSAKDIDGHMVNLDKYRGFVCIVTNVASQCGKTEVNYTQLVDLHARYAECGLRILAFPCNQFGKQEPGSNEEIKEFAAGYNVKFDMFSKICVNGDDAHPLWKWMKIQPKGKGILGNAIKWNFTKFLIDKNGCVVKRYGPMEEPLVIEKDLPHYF
Briefly: Protein crystallography of inhibitor complexes. On the procedure:
GPX4^U46C was pre-incubated with covalent inhibitors before crystallization using conditions that were optimized with monitoring on intact protein MALDI MS analysis. 40 μM GPX4^U46C was incubated with 375 μM LOC1886 in the reaction buffer (20 mM Tris pH 9.0, 100 mM NaCl, 2 mM TCEP, 1.5% DMSO) at 37° C. for 4 hours and then 4° C. overnight. Covalent binding was confirmed using intact protein MALDI MS analysis. The protein-inhibitor complex was then exchanged into crystallization buffer (20 mM Tris, pH 8.0, 300 mM NaCl, 3 mM TCEP) and concentrated to 5 mg/mL.
Protein samples of GPX4^U46C in complex with LOC1886 were initially screened at the High-Throughput Crystallization Screening Center of the Hauptman-Woodward Medical Research Institute (HWI) (hwi.buffalo.edu/high-throughput-crystallization-center/) (Luft et al. 2003). The most promising crystal hits were reproduced using under oil micro batch method at 23° C. […]
GPX4^U46C with LOC1886 diffracted X-ray at the beamline NE-CAT24-ID-C to resolution 1.93 Å. […] The structure of each protein was determined by molecular replacement method using MOLREP program and the crystal structures of GPX4^U46C (PDB id: 7L8K) and GPX4^U46C-R152H (PDB id: 7L8L) were both used as search models for structure determination (Vagin and Teplyakov, 2010). […]

The nature of series [2]: in vitro. The following applies: mouse, plasma.
The next series has as its target T2, GPX1 (Homo sapiens, UniProt P07203).
T2 sequence (P07203 1-203): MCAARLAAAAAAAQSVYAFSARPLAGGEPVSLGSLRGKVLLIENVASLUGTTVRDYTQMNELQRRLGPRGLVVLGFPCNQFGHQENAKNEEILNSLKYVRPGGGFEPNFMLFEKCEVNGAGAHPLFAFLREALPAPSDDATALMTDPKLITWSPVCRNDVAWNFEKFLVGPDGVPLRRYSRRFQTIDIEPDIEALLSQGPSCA
Kind of series: GPX1 activity assay in cell lysates. The series is classed as biochemical. Set-up: endogenous in cells; host or cells: A-673 cell lysate. On the procedure: Determination of GPX1 activity in cell lysates was performed as previously described by Stolwijk et al. with some modifications (Stolwijk et al. 2020). GPX1 and GPX4 activity were not evaluated simultaneously in the same assay as in the published protocol to maximize signal-to-noise with the GPX1 substrate. Again, NADPH consumption, as determined by the reduction in the absorbance at 340 nm, over time was monitored as a proxy for GPX1 activity, which, like GPX4, reduces its substrates using glutathione as a reductant. 100 μM hydrogen peroxide was selected as the GPX1 substrate in this assay. A-673 cell lysates and assay setup were performed as above for the GPX4 activity assay. All conditions were tested in triplicate. Buffer-only controls and controls without substrate containing only Milli-Q water vehicle were performed to assess background and baseline signal. GPX1 activity was calculated as reported by Stolwijk et al. 2020 and results were analyzed in GraphPad Prism 9.

In a further series the test system is SU-DHL-5. Briefly: Cytotoxicity in DLBCL cells, SU-DHL-5. Format: cell-based, human. The following applies: for IC50: Fer-1 1.0 μM, read-out: IC50 (μM) with Fer-1.
The test system of a further series is SU-DHL-2. Kind of series: Cytotoxicity in DLBCL cells, SU-DHL-2. Format: cell-based, human. The following applies: for pIC50 / IC50: SU-DHL-2; for pIC50: 24 h, read-out: IC50; for IC50: Fer-1 1.0 μM, read-out: IC50 (μM) with Fer-1.
Another series relates to SU-DHL-7. Kind of series: Cytotoxicity in DLBCL cells, SU-DHL-7. The following applies: for pIC50 / IC50: SU-DHL-7; for pIC50: 24 h, read-out: IC50; for IC50: Fer-1 1.0 μM, read-out: IC50 (μM) with Fer-1. Format: cell-based, human.
The next series relates to U-2932. Kind of series: Cytotoxicity in DLBCL cells, U-2932. The following applies: for pIC50 / IC50: U-2932; for pIC50: 24 h, read-out: IC50; for IC50: Fer-1 1.0 μM, read-out: IC50 (μM) with Fer-1. The series is classed as cell-based, human.

Molecules are shown by their SMILES. pIC50: −log10 of the molar value. Where two headings read alike, the source gives them in different places.

In general, half-life refers to how long it takes for the measured level to halve. Read a low half-life as rapid decline. `COc1cccc2[nH]c(C(=O)n3ccnc3)cc12` [LOC1886, reference compound]: the half-life in “in vitro [1]” was 10.8 min; in “in vitro [2]”, below 2 min. For the same compound, the “binding site in co-crystal structure” value on GPX4^U46C was “bound to allosteric sites C66 and C10 of GPX4^U46C”.

With `CC(C)(COC(=O)CCl)NC(=O)c1cc2ccc(Br)cc2[nH]1` [QW-156], the GPX1 inhibition result at GPX1 (200 μM) is on record as “approximately 30%”.

The compound `Cn1nc(C(=O)NC(C)(C)COC(=O)CCl)c2ccc(Br)cc21` [QW-314] gave a half-life in “in vitro [1]” of 2.3 min. In addition, on GPX1, the “GPX1 activity assay effect” value is “no inhibitory effect” and the “selectivity for GPX4 over GPX1, result in words” value is given as “high selectivity for GPX4 over GPX1”. For the same compound, at GPX4^U46C, the “binding site in co-crystal structure” value is listed as “covalently binds to the mutant cysteine in the U46 residue”. The half-life in the series “in vitro [2]” stood at 40.7 min.

For `COc1ccc(-c2ccc3c(C(=O)NC(C)(C)COC(=O)CCl)nn(C)c3c2)cc1Cl` [QW-446], the “Plasma Stability t1/2 (min) mouse” value is recorded as 24.0 min.

As a reminder, the IC50 is the concentration at which inhibition is half-maximal. As a reminder, the pIC50 is the negative decadic logarithm of the IC50, by convention in mol/L. For `CC(C)(COC(=O)CCl)NC(=O)c1nn(Cc2cc(Cl)cc(Cl)c2)c2cc(-c3ccc(N4CCOCC4)c(Cl)c3)ccc12` [QW-852], the “Selectivity^a (fold)” value with SU-DHL-5 is listed as above 1000 fold; in the series on SU-DHL-2, above 1000 fold; with SU-DHL-7, above 1000 fold; in the series on U-2932 it was 6 fold. Further, the IC50 in the series on SU-DHL-5 (SU-DHL-5) was 1.58 µM; in the series on SU-DHL-2, 4.95 µM; with SU-DHL-7, above 1000 µM; in the series with U-2932, 7.9 µM. Also, the pIC50 in the series with SU-DHL-2 was 8.70; in the series on SU-DHL-7 it was 7.51; in the series on U-2932 it was 5.86.

Regarding `COC(=O)c1ccc([C@@H]2c3[nH]c4ccccc4c3C[C@@H](C(=O)OC)N2C(=O)CCl)cc1` [RSL3, reference compound], the “Plasma Stability t1/2 (min) mouse” value was 5.2 min. Also, in the series with SU-DHL-5, the “Selectivity^a (fold)” value is recorded as 5 fold. The pIC50 in the series with SU-DHL-5 (SU-DHL-5, 24 h, read-out: IC50) is 6.40. The IC50 in the series on SU-DHL-5 (SU-DHL-5) was determined as 2.15 µM. In the series on SU-DHL-2, the “Selectivity^a (fold)” value is on record as 8 fold, the negative logarithm of the IC50 (pIC50) is 6.74 and the IC50 was 1.5 µM. In the series on SU-DHL-7, the “Selectivity^a (fold)” value was 6 fold, the pIC50 was 6.77 and the IC50 was 1 µM. Moreover, in the series with U-2932, the “Selectivity^a (fold)” value is listed as above 1000 fold, the pIC50 was 6.80 and the 50% inhibitory concentration (IC50) was 316 µM.
